{
  "source": "patent US11472791B2",
  "about": "(Incyte Corporation, priority 2019, dated 2022)",
  "data": [
    {"molecular_target": "CDK2/Cyclin E1 (Homo sapiens (Human), UniProt P24941)", "experiment": "CDK2/Cyclin E1 HTRF enzyme activity assay", "format": "biochemical", "conditions": "1 mM ATP", "protocol": "Assays are conducted in white 384-well polystyrene plates in a final reaction volume of 8 μL. […] HTRF signals are read after 1 hour at room temperature on a PHERAstar FS plate reader (BMG Labtech). Data is analyzed with IDBS XLFit and GraphPad Prism 5.0 software using a three or four parameter dose response curve to determine IC50 for each compound.", "units": {"IC50": "nM"}, "values": [
      {"compound": "C[C@]1(O)C[C@H](NCc2ccc(-n3cc(-c4nc(NC5CCN(S(=O)(=O)C6CC6)CC5)ncc4C#N)cn3)c(Cl)c2)C1", "note": "[Example 286, 4-(1-(2-Chloro-4-((((1r,3r)-3-hydroxy-3-methylcyclobutyl)amino)methyl)phenyl)-1H-pyrazol-4-yl)-2-((1-(cyclopropylsulfonyl)piperidin-4-yl)amino)pyrimidine-5-carbonitrile]", "IC50": "< 50"},
      {"compound": "O=S(=O)(Cc1ccccc1)N1CCC(Nc2ncc(C(F)(F)F)c(-c3cnn(C4CCOCC4)c3)n2)CC1", "note": "[Example 5, N-(1-(Benzylsulfonyl)piperidin-4-yl)-4-(1-(tetrahydro-2H-pyran-4-yl)-1H-pyrazol-4-yl)-5-(trifluoromethyl)pyrimidin-2-amine]", "IC50": "< 50"},
      {"compound": "Cc1nc(CNC(C)C)ccc1-n1cc(-c2nc(NC3CCN(S(=O)(=O)C4CC4)CC3)ncc2C#N)cn1", "note": "[Example 153, 2-((1-(Cyclopropylsulfonyl)piperidin-4-yl)amino)-4-(1-(6-((isopropylamino)methyl)-2-methylpyridin-3-yl)-1H-pyrazol-4-yl)pyrimidine-5-carbonitrile]", "IC50": "< 50"},
      {"compound": "Cc1nc(C(=O)N[C@]2(C)C[C@H](O)C2)ccc1-n1cc(-c2nc(NC3CCN(S(C)(=O)=O)CC3)ncc2C(F)(F)F)cn1", "note": "[Example 28, N-(cis-3-Hydroxy-1-methylcyclobutyl)-6-methyl-5-(4-(2-(1-(methylsulfonyl)piperidin-4-ylamino)-5-(trifluoromethyl)pyrimidin-4-yl)-1H-pyrazol-1-yl)picolinamide]", "IC50": "< 50"},
      {"compound": "[2H]C([2H])([2H])NCc1ccc(-n2cc(-c3nc(NC4CCN(S(=O)(=O)c5cn(C)cn5)CC4)ncc3Cl)cn2)c(C)c1", "note": "[Example 136, 5-Chloro-N-(1-((1-methyl-1H-imidazol-4-yl)sulfonyl)piperidin-4-yl)-4-(1-(2-methyl-4-(((methyl-d3)amino)methyl)phenyl)-1H-pyrazol-4-yl)pyrimidin-2-amine]", "IC50": "< 50"},
      {"compound": "CN1CCC(S(=O)(=O)N2CCC(Nc3ncc(C(F)(F)F)c(-c4cnn(CC(C)(C)O)c4)n3)CC2)C1", "note": "(racemic) [Example 86, (±)-2-Methyl-1-(4-(2-((1-((1-methylpyrrolidin-3-yl)sulfonyl)piperidin-4-yl)amino)-5-(trifluoromethyl)pyrimidin-4-yl)-1H-pyrazol-1-yl)propan-2-ol]", "IC50": "< 50"},
      {"compound": "CCN1CCN(CCCS(=O)(=O)N2CC[C@H](Nc3ncc(C(F)(F)F)c(-c4cnn(CC(C)(C)O)c4)n3)[C@H](F)C2)CC1", "note": "[Example 210, 1-(4-(2-(((3R,45)-1-((3-(4-Ethylpiperazin-1-yl)propyl)sulfonyl)-3-fluoropiperidin-4-yl)amino)-5-(trifluoromethyl)pyrimidin-4-yl)-1H-pyrazol-1-yl)-2-methylpropan-2-ol]", "IC50": "< 50"},
      {"compound": "COC[C@@H]1CCN1CCCS(=O)(=O)N1CCC(Nc2ncc(C(F)(F)F)c(-c3cnn(CC(C)(C)O)c3)n2)CC1", "note": "[Example 221, (S)-1-(4-(2-((1-((3-(2-(Methoxymethyl)azetidin-1-yl)propyl)sulfonyl)piperidin-4-yl)amino)-5-(trifluoromethyl)pyrimidin-4-yl)-1H-pyrazol-1-yl)-2-methylpropan-2-ol]", "IC50": "< 50"},
      {"compound": "CC(C)(O)Cn1cc(-c2nc(NC3CCN(S(=O)(=O)C4CCC(N5CCC5)CC4)CC3)ncc2C(F)(F)F)cn1", "note": "(single isomer, unassigned) [90 (peak 2), 1-(4-(2-((1-((4-(Azetidin-1-yl)cyclohexyl)sulfonyl)piperidin-4-yl)amino)-5-(trifluoromethyl)pyrimidin-4-yl)-1H-pyrazol-1-yl)-2-methylpropan-2-ol]", "IC50": "< 50"},
      {"compound": "CS(=O)(=O)N1CCC(Nc2ncc(C#N)c(-c3cnn(-c4ccc(CN[C@H]5C[C@@H](C#N)C5)cc4Cl)c3)n2)CC1", "note": "[Example 164, 4-(1-(2-Chloro-4-((((1s,3s)-3-cyanocyclobutyl)amino)methyl)phenyl)-1H-pyrazol-4-yl)-2-((1-(methylsulfonyl)piperidin-4-yl)amino)pyrimidine-5-carbonitrile]", "IC50": "< 50"}
    ]}
  ]
}
